Data set [1] in a line: Brain tissue binding (dialysis of brain homogenate). It is filed as in vitro ADME. The following applies: pH 7.4, brain homogenate 20 mg/mL, 2 µM compound, 37 °C, read-out: Brain Tissue Binding [fu,bound (%)]. As to the method:
Figure S3B. SirT1 protein levels in N2a-E4 cells after A03 and DDL-214 treatment. Compound treatment was done at 5 and 50 µM. SirT1 levels were measured by AlphaLISA followed and normalized to protein […]
DDL-218 Physiochemical Properties
Brain Tissue Binding [fu,bound (%)]
Brain tissue was homogenized in PBS (pH 7.4) (1: 3 weight(mg)/volume(µL)) and the protein concentration of was determined using the Micro BCA™ Protein Assay Kit (Thermo Fisher Scientific, Cat#23235). Brain homogenate was diluted to 20 mg/mL in PBS (pH 7.4) and added to Slide-A-Lyzer™ MINI Dialysis Devices, 10K MWCO dialysis cups (Thermo Fisher Scientific, Cat#PI88401) in 48-well plate containing PBS (500 µL; pH 7.4). 1 µL of […] compound was added to the brain homogenate (Final Concentration: 2 µM compound, 0.5% DMSO) and incubated on a rocker for 4.5 hours at 37 °C. 50 µL of brain homogenate (within the dialysis cup) and PBS (within the 48-well plate) were transferred to new microcentrifuge tubes containing 200 µL of quenching reagent (100% Acetonitrile) containing internal standard. […]
The % of the unbound drug (fu,bound) was calculated using the following equation: fu,bound = [normalized peak area in buffer side / normalized peak area in brain side] x 100 Liver Microsome Stability [t1/2 (min)] […]

Data set [2] deals with SirT1 mRNA in N2a-E4 cells. In words: SirT1 mRNA in N2a-E4 cells (qRT-PCR). In kind it is cell-based, murine. The following applies: 5 µM, 24 h, normalized to GAPDH and DMSO. As to the method: Relative SirT1 mRNA and protein enhancement by racemate DDL-214 and enantiomers DDL-218 and − 219 was determined in murine neuroblastoma cells stably transfected with ApoE4 (N2a-E4)[25]. All test compounds in DMSO were prepared at 2x the final concentration in DMEM supplemented with 10% fetal bovine serum (FBS) and 1% pen-strep (PS) and 50 µL of each loaded into individual wells of a 96-well plate. Previously cultured N2a-E4 were then trypsinized, harvested, centrifuged, and counted; then 50 µL of cell suspension adjusted to 400 cells/µL was added to each well. The plate was then incubated at 37 °C, 5% CO2 for 48 h. Cells were treated with DDL-214, DDL-218, or DDL-219 at 5 µM final then incubated for 24 h. […]
(§1) Total RNA was isolated from cells or brain tissue (Qiagen RNEasy kit). Total RNA (0.5–1.0 µg) mRNA was then converted to cDNA (SuperScript™ III First-Strand Synthesis SuperMix kit; Thermo Fisher), and gene mRNA levels were measured using a gene-specific qRT-PCR Taqman assays (Thermo Fisher). Gene mRNA levels were normalized to GAPDH mRNA levels measured either in the same cDNA sample or in the same qPCR reaction using multiplexing of gene-of-interest/VIC and GAPDH/FAM, normalized by the delta-delta-Ct method.
Background: Quantitative PCR measures a nucleic acid by following its amplification.

The next data set deals with NFYb mRNA. In words: Hippocampal NFYb mRNA in ApoE4-TR:5xFAD mice. In kind it is in vivo. Particulars: 20 mg/Kg BID, 56 days, vs vehicle. As to the method: The active (-) enantiomer, DDL-218, underwent efficacy testing in ApoE4-TR:5xFAD mice[27] that were 6-7.5 months old at the start of treatment. ApoE4-TR:5xFAD male and female mice received either 20 mg/Kg DDL-218 BID (~ 8- to10-hour interval; total daily dose of 40 mkd) on weekdays and a single 40 mg/Kg dose on weekends (n = 12) or vehicle-only (n = 11); 8 C57BL/6 mice received vehicle-only as behavioral controls. Dosing was by the oral route and by oral feeding using a pipette as previously described, not gavage, as it is safer for repeated oral dosing than gavage. The dose of 20 mg/kg BID (40 mkd) was selected based on findings from PK analysis and was the highest feasible in the formulation used for oral feeding (compound is first solubilized in water, then mixed strawberry syrup diluted in water, for a final vehicle that is 25% syrup and 75% water). […]
as §1

Entries after “also recorded” stand apart in the source; their conditions may differ.

For `CC(N)C(=O)OC(C)(C)Cc1ccncc1` (stereo not drawn) [DDL-218], the fraction unbound at 4.5 h, 2 µM in data set [1] amounted to 0.43. Further, the “SirT1 mRNA” value in data set [2] is “greatest increase; also recorded: significantly increased SirT1 mRNA”. Further, in the data set with NFYb mRNA, the “hippocampal NFYb mRNA” value is “significantly increased”.

Values taken from publication PMC12019328, “Discovery of an ApoE4-targeted small-molecule SirT1 enhancer for the treatment of Alzheimer’s disease” (Scientific Reports, 2025).
